Laboratory results published in patent US20020127228A1, “PGT and apoptosis” (WELFIDE CORPORATION, priority 1998, published 2002).

What was measured:
[1] = target: T1, PGT (Rattus norvegicus, UniProt Q00910); experiment: Uptake of tritium-labelled PGE1 into differentiated PC12 cells through PGT; type: cell-based; details: tritium-labelled PGE1 0.1 μM, mean ± SEM
T1 construct: endogenous in cells; host or cells: differentiated PC12 cells
Description: 1) Differentiated PC12 cells and tritium-labelled PGE1 (added concentration: 0.1 μM) were subjected to 10 mins of incubation at 37° C. Afterwards, the cells were washed with ice-cold phosphate buffered saline containing 5 g/l of bovine serum albumin and next washed with ice-cold phosphate buffered saline. Then, radioactivity was measured. The amount of PGE1 uptake into PC12 cells was calculated.
2) Bromcresol green (hereinafter noted as “BrCG”), which is a PGT inhibitor, was placed together in the culture medium at the addition of PGE1. Afterwards, treatment was conducted in the same manner as mentioned in 1).
3) The antisense oligonucleotide specific to PGT cDNA was designed as follows:
Moreover, said antisense was thioate modified. Using Lipofectin (Gibco), PC12 underwent transfection during 2 days prior to the addition of PGE1. Afterwards, treatment was conducted in the same manner as mentioned in 1).

[2] = system: SAPK/JNK; experiment: SAPK/JNK activation in PC12 cells after NGF withdrawal, Western blot; type: cell-based, rat; parameters: key to Degree of luminescence: +++ is extremely strong; + is confirmed luminescence; ± is poor luminescence; details: for Degree of luminescence: phosphorylated JNK band
Description: 4) Intercellular signals via SAPK/JNK Stress-activated protein kinase/Jun N-terminal kinase (abbreviated SAPK/JNK) is associated with apoptosis induction. Thus, intercellular signals within cells via SAPK/JNK were investigated based upon effects with respect to variations in SAPK/JNK activity.
The present experiment was performed with Western blot analysis. Individual additives were added to cell culturing medium for PC12 cells in accordance with the aforementioned experiment. Culturing was performed for 1-4 hrs after withdrawal of NGF. PC12 cells were lysed with a buffer solution, centrifuged, and the supernatant of cell lysate was prepared. After said supernatant was incubated with JNK 1 polyclonal antibodies (Santa Cruz Biotechnology) at 4° C. for 1 hr. Protein A sepharose was added to it. The resultant was incubated for 1 hr and the immunoprecipitate as described below was provided. […] of cell lysate was conducted with SDS-PAGE electrophoresis, and transferred to a nylon membrane (Amersham Pharmacia Biotech). Blotting of phosphorylated (active) JNK antibodies (Santa Cruz Biotechnology) was performed with this membrane, and bands were detected in accordance with the instruction manual. Intercellular signals within cells were amplified by chemiluminescence and auto radioactivity methods (FCL, Amersham Pharmacia Biotech).

[3] = system: rat cerebral cortical neurons; experiment: Apoptosis induced by amyloid beta peptide in rat cerebral cortical neurons, Hoechst 33342; type: cell-based
Description: The cortex region of embryonic day 17 or 18 rat cerebrum was extracted on ice. Cells were dispersed using a neuron dispersal solution (Sumilon) after sectioning. Afterwards, cells were dispersed to a density of 1.5×10^5 cells/cm^2 in a culturing flask that was coated with polyethyleneimine beforehand. After 4 days of culturing, the following experiment was provided. Therefore, as the culture medium, Neurobasal medium (Gibco) adding with B27 supplement (1/50 volume), 2-mercaptoethanol (27.5 μM), L-glutamic acid (25 μM), and glutamine (0.5 mM) was used.
Amyloid beta peptide 25-35 (Aβ25-35) was dissolved in distilled water to a concentration of 1 mM, incubated for 1 week at about 37° C., and Aged-Aβ25-35 was prepared. The induction of apoptosis in neuron was performed by the replacement of the aforementioned culture medium (with the exception of L-glutamicacid) containing 10 μM Aged-Aβ25-35.
4) It was investigated that the suppressing effect of PGE1 on apoptosis induced by amyloid beta peptide. After dissolution of PGE1 in ethanol, when the aforementioned 2) Aged-Aβ25-35 was added to the culture medium, simultaneously PGE1 solution was added to it. The final concentration thereof was 1 μM.
Cells were washed with PBS (−) at 24 hrs after induction of apoptosis and fixed for 30 mins at room temperature using a 1% glutaraldehyde solution (in PBS). Next, cell were washed with PBS (−) two times and followed by incubation with 1 mM Hoechst 33342 solution (in PBS) for 2 mins. Afterwards, observation of nuclear chromatin morphology was conducted using a fluorescence microscope with 4 arbitrary visual fields. Normal cells and apoptotic cells (cell where chromatin fragmentation or condensation was appeared) were counted, and the ratio was calculated as the incidence of apoptosis. The n was 3.
6) The relationship between PGT inhibitors and apoptosis induced by amyloid beta peptide was investigated. BrCG, which is a PGT inhibitor, with a final concentration of 60 μM was added simultaneously with PGE1 but other manners were in accordance with the aforementioned ones in 1)-5).
It was investigated that the influence of PGT antisense on the inhibitory effect of PGE1 against apoptosis induced by amyloid beta peptide. PGT antisense was used as it is with regard to the oligonucleotide in Experiment 3. The addition concentration thereof was 1.5 μM. Incidence of apoptosis was performed in accordance with Experiment 5. Then was 3.
1) Drugs having an inhibitory activity against induction of apoptosis by amyloid beta peptide were investigated. After dissolving test drugs (PGE1, PGK1, PGK2, and bicyclo PGE2) in ethanol, when Aged-Aβ25-35 was added to the culture medium, simultaneously test drug solution were added to it. But other manners were in accordance with Experiment 5. Ratio of normal cells and apoptotic cells allowed calculation of the rate of inhibition of apoptosis induction.

[4] = system: NRK52E cells; experiment: Apoptosis induced by NO donor NOC12 in NRK52E kidney cells; type: cell-based, rat; details: NOC12 0.4 mM, 24 hrs, n 5
Description: 1) Apoptosis was induced by NO (nitrogen monoxide) in kidney cells. NRK52E cells, which are established from a rat renal tubule epithelial cell line, mainly derived from distal were cultured for 24 hours with a chamber slide that was coated with type-I collagen. Afterwards, the cultured medium was changed to a serum-free medium, and apoptosis was induced by addition of NOC12 (0.4 mM) or S-nitroso L-glutathione (GSNO: 1 mM), which are NO donors.
4) Inhibitory effect of PGE1 to the induction of apoptosis in kidney cells was investigated PGE1 was added simultaneously with the addition of a NO donor to a final concentration of 1 or 10 μM. After 24 hrs, cells were fixed with a 1% glutaraldehyde solution and stained with Hoechst 33342. Three visual fields were selected arbitrarily per slide, and the ratio of the cells count where nuclear fragmentation and condensation appeared was calculated with respect to the total cells in the field (magnification: 400x). The n was 5.

Amount of PGE1 uptake ([1]; 10 mins at 37° C., no BrCG (Table 3)): 73 ± 11 fmol/mg protein/10 mins
Amount of PGE1 uptake ([1]; no antisense (Table 4)): 78 ± 11 fmol/mg protein/10 mins
Compound: CCCCC[C@H](O)/C=C/[C@H]1[C@H](O)CC(=O)[C@@H]1CCCCCCC(=O)O [PGE1, prostaglandin E1]
Effect on SAPK/JNK activation (in words) ([2]; 1 hr after NGF withdrawal): the activation was suppressed
Degree of luminescence ([2]; PGE1 0.1 μM): +
Degree of luminescence ([2]; PGE1 1 μM): ±
Effect on apoptosis induced by amyloid beta peptide (in words) [3]: suppressed apoptosis inducted by amyloid beta peptide
Incidence of apoptosis (%) ([3]; Experiment 5, PGE1 1 μM, 10 μM Aged-Aβ25-35, 24 hrs, n 3): 23 ± 2 %
Incidence of apoptosis (%) ([3]; Experiment 6, PGE1, Aged-Aβ25-35, n 3): 23 ± 2 %
Inhibition of apoptosis induction (%) ([3]; Experiment 7, test drug added with Aged-Aβ25-35): 38.2%
Incidence of apoptosis (%) ([4]; PGE1 1 μM): 11 ± 2 %
Incidence of apoptosis (%) ([4]; PGE1 10 μM): 6 ± 1 %
